Results reported in US9724335B2, “Solid dispersions of insoluble drug and preparation method thereof” (SK BIOPHARMACEUTICALS CO., LTD., priority 2012, dated 2017).
≈ marks a conversion by molar mass, not a printed value.

Legend:
[1] = Solubility of CBI in several solvents (24 h stirring at room temperature, HPLC); type: physicochemical; settings: for solubility at 24 h: organic solvent or mixture, thermodynamic from solid
Experimental: Under several solvent conditions—i.e., distilled water, methanol, ethanol, acetone and diethyl ether—the solubility of CBI was measured. Specifically, about 5 to 40 mg of CBI was introduced into a 1.5 mL microtube, and 1 mL of the test solvent was added thereto. The mixture was slowly stirred in a rotary stirrer for 24 h under the condition of room temperature until solvent equilibrium was reached. After stirring, the suspended solution was filtered through a 0.45 micrometer membrane filter. The supernatant was collected and diluted by two-fold with the same amount of diluent for analysis. The CBI concentration was analyzed by using high-performance liquid chromatography. The column used in the present experiment was a […], 5 μm C18 column, and the mobile phase was a mixture of 35% acetonitrile, 20% methanol and 45% distilled water by volume. The flow rate was 1.0 mL/min, and the detection was performed at 255 nm. The results are shown in Table 11 wherein the values are represented as an average of three repeats ±standard deviation.

[2] = Pharmacokinetic test of the solid dispersion for a Beagle dog (oral, plasma CBI by LC-MS/MS); type: in vivo; settings: oral 40 mg/kg in gelatin capsule, all the time zones (0-24 h), listed as CBI powder
Experimental: Just before the test, three Beagle dogs were weighed respectively. The solid dispersion of Example 3 as the test group and CBI powder as the control group each weighed in the amount corresponding to 40 mg/kg, were filled into a gelatin capsule and then orally administered. Just before and at 0.5, 1, 2, 4, 6, 8 and 24 h after administration, the blood was collected from the popliteal vein. The plasma was separated from the blood sample by centrifugation and stored/kept at −20° C. until analysis thereof. For the analysis, the plasma sample (0.5 ml) was correctly transferred to a 1.5 ml polypropylene centrifuge tube. This mixture was vortexed for 30 sec and centrifuged at 400 rpm for 10 min. The concentration of CBI in the plasma was analyzed by LC-MS/MS. […] The peak was detected by MRM (multiple reaction monitoring) method using triple-quadrupole mass spectrometry. The ionization was analyzed in the positive mode by using electrospray ionization (ESI) wherein the ion spray temperature was set up at 500° C. In the MRM method, the protonated molecular ions of CBI and the internal standard compound were monitored to have the m/z values of 325.1 and 268.0, and the product ions thus produced were monitored to have the m/z values of 91.0 and 155.0, respectively. The area under the concentration-time curve (AUC) of the drug in the plasma was calculated by the linear trapezoidal method.

Solubility ([1]; Distilled Water): Not detected | solubility at 24 h ([1]; Acetone): 24800 µg/mL (≈ 76.5 mM) | solubility at 24 h ([1]; Diethyl Ether): 700 µg/mL (≈ 2.16 mM) | solubility at 24 h ([1]; Ethanol): 1500 µg/mL (≈ 4.62 mM) | solubility at 24 h ([1]; Methanol): 2500 µg/mL (≈ 7.71 mM) | Blood CBI Concentration [2]: below the sensitivity for quantification
Compound: NC(=O)OCc1cc(-c2ccc(OCc3ccccc3)cc2)no1 [CBI, carbamic acid 3-(4-benzyloxy-phenyl)-isoxazol-5-ylmethyl ester]
